Test results as given in the supplement of paper PMC10307832.

Columns and labels:
Assay in all cases: relative viability (nuclei count vs DMSO), 5 days (fraction); higher = more cells survive
[1] = compound: C=CCc1cccc(/C=N/NC(=O)CN2CCN(Cc3ccccc3)CC2)c1O [PAC-1] + NC(=O)Nc1cc(-c2cccc(F)c2)sc1C(=O)N[C@H]1CCCNC1 [AZD7762] (partner 0.2 µM)
How it was run: (§1)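 Medians of duplicate plates are given as relative viability. That measure is the nuclei count in treated wells divided by the count in vehicle wells. Counts were taken on 4× images of lung cancer cell lines in 1536-well plates, 5 days after pin-tool dosing the day after seeding with one drug alone or a fixed anchor-drug dose plus five library-drug doses (not always all listed) in √10 steps.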

[2] = compound: C=CC(=O)Nc1cc(-n2c(=O)ccc3cnc4ccc(-c5ccc(NS(C)(=O)=O)cc5)cc4c32)ccc1C [BMX-IN-1] + CCNC(=O)c1noc(-c2cc(C(C)C)c(O)cc2O)c1-c1ccc(CN2CCOCC2)cc1 [Luminespib] (partner 0.01 µM)
How it was run: as §1

[3] = compound: C=CC(=O)N1CCC[C@@H](n2nc(-c3ccc(Oc4ccccc4)cc3)c3c(N)ncnc32)C1 [Ibrutinib] + Cc1nc(NC(=O)N2CCC[C@H]2C(N)=O)sc1-c1ccnc(C(C)(C)C(F)(F)F)c1 [Alpelisib] (partner 2 µM)
How it was run: as §1

[4] = compound: C=CC(=O)Nc1cc(-n2c(=O)ccc3cnc4ccc(-c5ccc(NS(C)(=O)=O)cc5)cc4c32)ccc1C [BMX-IN-1] + Nc1nc2[nH]cc(CCc3ccc(C(=O)N[C@@H](CCC(=O)O)C(=O)O)cc3)c2c(=O)[nH]1 [Pemetrexed] (partner 0.2 µM)
How it was run: as §1

Cell Line	relative viability ([1]; first compound 0.02 µM)	relative viability ([1]; first compound 0.06325 µM)	relative viability ([1]; first compound 0.2 µM)	relative viability ([1]; first compound 2 µM)	relative viability ([2]; first compound 0.02 µM)	relative viability ([2]; first compound 0.2 µM)	relative viability ([2]; first compound 0.6325 µM)	relative viability ([2]; first compound 2 µM)	relative viability ([3]; first compound 0.005 µM)	relative viability ([3]; first compound 0.01581 µM)	relative viability ([3]; first compound 0.05 µM)	relative viability ([3]; first compound 0.1581 µM)	relative viability ([3]; first compound 0.5 µM)	relative viability ([4]; first compound 0.02 µM)	relative viability ([4]; first compound 0.2 µM)	relative viability ([4]; first compound 0.6325 µM)	relative viability ([4]; first compound 2 µM)
NCI-H23	0.242	0.349	0.244	0.314	0.209	0.203	0.22	0.208	0.514	0.695	0.566	0.76	0.6	0.693	1.04	0.797	0.622
NCI-H322M	0.573	0.618	0.706	0.584	0.847	0.807	0.756	0.883	0.752	0.807	0.779	0.838	0.486	0.596	0.689	0.65	0.586
NCI-H358	0.51	0.507	0.55	0.402	0.444	0.308	0.405	0.327	0.817	0.603	0.504	0.887	0.36	0.167	0.182	0.176	0.175
NCI-H441	0.994	1.15	1.19	1.1	0.384	0.428	0.56	0.279	0.908	0.54	0.868	0.871	0.711	0.225	0.267	0.282	0.256
NCI-H460	0.548	0.674	0.602	0.656	0.0361	0.0362	0.0299	0.0331	0.5	0.319	0.496	0.536	0.538	0.0558	0.0711	0.0676	0.071
NCI-H596	1.11	1.2	1.09	1.13	0.917	1.02	1.02	1.01	0.482	0.503	0.51	0.503	0.479	0.497	0.522	0.496	0.511
NCI-H647	0.44	0.589	0.502	0.467	0.242	0.294	0.179	0.379	1.15	1.01	1.14	1.45	1.21	0.162	0.169	0.15	0.142
NCI-H650	0.945	0.943	1.02	0.951	0.789	0.831	0.914	0.773		1		1.26	1.13	0.926	0.961	0.956	0.919
